Measurements as given in patent publication US11078157B1, “Compound embodiments that release H2S by reaction with a reactive compound and methods of making and using the same” (University of Oregon, priority 2018, dated 2021).
“Also recorded” adds a separate entry of the source.

Key:
[1] = H2S release via methylene blue assay (MBA); assay type: physicochemical; conditions: for H2S release in the presence of cysteine: 25 μM compound, cysteine 500 μM (20 equiv.); for H2S release on treatment with GSH: 500 μM GSH; for H2S release on treatment with cysteine methyl ester: 500 μM cysteine methyl ester, compared with cysteine; for entropy of activation (ΔS‡), Eyring analysis: varied temperature; for H2S release on treatment with homocysteine: 500 μM homocysteine; for H2S release on treatment with penicillamine: 500 μM penicillamine; for H2S release in the absence of added nucleophiles (hydrolysis): H2O/PBS, physiological pH; for H2S release on co-incubation with cysteine and GSH: cysteine 500 μM + GSH 1 mM, compared with cysteine alone; for second-order rate constant (k2) of cysteine-triggered H2S release: cysteine 250-1250 μM, pseudo-first order conditions, plot of [Cys] vs kobs; for dependence of H2S release on cysteine concentration: increasing cysteine concentrations; for reaction order in cysteine: plot of log[Cys] versus log(kobs); for H2S release / rate of H2S release, effect of alkyl functionalization: dithioesters 25 μM, cysteine 500 μM (20 equivalents), relative to compound 506a
Experimental: H2S Detection Materials and Methods—Phosphate buffered saline (PBS) tablets (1×, CalBioChem) were used to prepare buffered solutions (140 mM NaCl, 3 mM KCl, 10 mM phosphate, pH 7.4) in deionized water. Buffer solutions were sparged with N2 to remove dissolved oxygen and stored in an N2-filled glovebox. Donor stock solutions (in DMSO) were prepared inside an N2-filled glovebox and stored at −25° C. until immediately before use. Trigger stock solutions (in PBS) were freshly prepared in an N2-filled glovebox immediately before use.
General Procedure for Measuring H2S Release via Methylene Blue Assay (MBA)—Scintillation vials containing 20 mL of PBS were prepared in an N2-filled glovebox. To these solutions, 20 μL of 500 mM analyte stock solution (in PBS) was added for a final concentration of 500 μM. While stirring, the solutions were allowed to thermally equilibrate in heating block at the desired temperature for approximately 20-30 minutes. Immediately prior to donor addition, 0.5 mL solution of the methylene blue cocktail were prepared in disposable 1.5 mL cuvettes. The methylene blue cocktail solution contained: 200 μL of 30 mM FeCl3 in 1.2 M HCl, 200 μL of 20 mM N,N-dimethyl-p-phenylene diamine in 7.2 M HCl, and 100 μL of 1% (w/v) Zn(OAc)2. […] At set time points after the addition of donor, 500 μL reaction aliquots were added to the methylene blue cocktail solutions and incubated for 1 hour at room temperature shielded from light. Absorbance values at 670 nm were measured 1 hour after addition of reaction aliquot. Each experiment was performed in quadruplicate unless stated otherwise.
MBA Calibration Curve—Solutions containing 0.5 mL of the methylene blue cocktail and 0.5 mL PBS containing 500 μM cysteine were freshly prepared in disposable cuvettes (1.5 mL). Under inert conditions, a 10 mM stock solution of NaSH (Strem Chemicals) in PBS was prepared and diluted to 1 mM. Immediately after dilution, 1 mM NaSH was added to 1.0 mL solutions for final concentrations of 10, 20, 30, 40, and 50 μM. Solutions were mixed thoroughly, incubated at room temperature for 1 hour, and shielded from light. Absorbance values at 670 nm were measured after 1 hour.
In this example, the released H2S was measured and quantified using the methylene blue assay for H2S. In a typical use of this assay, aliquots from a reaction mixture with the H2S donor and cysteine are treated with 0.5 mL of a methylene blue assay mixture containing 0.1 mL zinc acetate (1% w/v), 0.2 mL FeCl3 (30 mM in 1.2 M HCl), and 0.2 mL N,N-dimethyl-p-phenylene diamine (20 mM in 7.2 M HCl)). After incubation for 1 hour, the absorbance at 670 nm is measured and converted to a H2S concentration by using the H2S calibration curve. To assess the H2S-releasing efficiency from the compound embodiments, a methylene blue calibration curve was used to quantify the H2S release (FIG. 2).

[2] = thiol; cited from earlier work
[3] = pKa and thiolate fraction of thiol triggers (literature); assay type: physicochemical; conditions: under physiological conditions
[4] = 25 μM donor, cysteine, after 1 hour

O=C(Sc1ccccc1)c1ccccc1 [S-phenyl benzothioate, reference compound]
H2S release in the presence of cysteine [1]: lack of H2S release; also recorded: Neither of these compounds released H2S

S=C(Sc1ccccc1)c1ccccc1 [compound 506a]
H2S release on treatment with GSH ([1]; 25 μM donor): a significant H2S release was not observed
H2S release on treatment with cysteine methyl ester ([1]; 25 μM donor): did not affect H2S release
entropy of activation (ΔS‡), Eyring analysis ([1]; 25 μM donor, 500 μM cysteine): −23±1 eu
H2S release on treatment with homocysteine ([1]; 25 μM donor): a reduction in the H2S release rate
H2S release on treatment with penicillamine ([1]; 25 μM donor): significant H2S release was not observed
H2S release in the absence of added nucleophiles (hydrolysis) ([1]; 25 μM donor): H2S release was not observed
H2S release on co-incubation with cysteine and GSH ([1]; 25 μM donor): Minimal change on the cysteine-triggered H2S release
second-order rate constant (k2) of cysteine-triggered H2S release ([1]; 25 μM donor): 1.8 ± 0.1 M⁻¹ s⁻¹
H2S released after 1 hour [1, 4]: approximately 17 μM
H2S releasing efficiency [1, 4]: ~68%
dependence of H2S release on cysteine concentration ([1]; 25 μM donor): Increasing amounts of H2S released with increasing cysteine concentrations
H2S release with cysteine derivatives having masked thiol or amine ([1]; 25 μM donor, thiol or amine moiety of cysteine masked): reduced H2S release
experimentally-observed ΔH‡ ([1]; Eyring analysis, 25 μM donor, 500 μM cysteine): 14.4 kcal/mol
reaction order in cysteine [1]: first order in cysteine

CC(=S)Sc1ccccc1 [compound 506b]
H2S release / rate of H2S release, effect of alkyl functionalization [1]: enhanced rates of H2S release

CC(C)C(=S)Sc1ccccc1 [compound 506c]
H2S release / rate of H2S release, effect of alkyl functionalization [1]: enhanced rates of H2S release

S=C(SCc1ccccc1)c1ccccc1 [compound 506d]
H2S release / rate of H2S release, effect of alkyl functionalization [1]: minimal H2S release

CC(=S)SCc1ccccc1 [compound 506e]
H2S release / rate of H2S release, effect of alkyl functionalization [1]: H2S release was observed

CC(C)C(=S)SCc1ccccc1 [compound 506f]
H2S release / rate of H2S release, effect of alkyl functionalization [1]: relatively slow H2S release

S=C(Oc1ccccc1)c1ccccc1 [compound 604a, O-Phenyl benzothioate]
H2S release in the presence of cysteine [1]: result in H2S release
H2S release on treatment with GSH ([1]; 25 μM donor): does not result in H2S release; also recorded: did not generate H2S
H2S release on treatment with N-acetylcysteine ([1]; 25 μM donor, 500 μM N-acetylcysteine): did not, in H2S release
H2S release on treatment with N-acetylcysteine methyl ester ([1]; 25 μM donor, 500 μM N-acetylcysteine methyl ester): did not, in H2S release
H2S release on treatment with S-methylcysteine ([1]; 25 μM donor, 500 μM S-methylcysteine): did not, in H2S release
H2S releasing efficiency ([1]; 25 μM donor, 500 μM cysteine (20 equivalents)): 80%
H2S release on treatment with cysteine methyl ester ([1]; 25 μM donor): did not affect H2S production
entropy of activation (ΔS‡), Eyring analysis ([1]; 25 μM donor, 500 μM cysteine): −38±3 eu
H2S release on treatment with homocysteine ([1]; 25 μM donor): result in H2S release; also recorded: resulted in H2S release, although at a slower rate than from treatment with cysteine
H2S release on treatment with lysine ([1]; 25 μM donor, 500 μM lysine): did not result in H2S release
H2S release on treatment with penicillamine ([1]; 25 μM donor): result in H2S release
H2S release on treatment with serine ([1]; 25 μM donor, 500 μM serine): did not result in H2S release
H2S release in the absence of added nucleophiles (hydrolysis) ([1]; 25 μM donor): no hydrolysis-mediated H2S release was observed
H2S release on treatment with porcine liver esterase (PLE) ([1]; 25 μM donor, PLE 1.0 U/mL): H2S generation was not observed
H2S release on co-incubation with cysteine and GSH ([1]; 25 μM donor): results in H2S release, albeit at a slower rate than with Cys alone; also recorded: a reduced rate of H2S release was observed
Cysteine-triggered H2S release in the presence of lysine ([1]; 25 μM donor, cysteine 500 μM + lysine 500 μM): no change in H2S releasing-efficiency was observed
second-order rate constant (k2) of cysteine-triggered H2S release ([1]; 25 μM donor): 9.1 ± 0.3 M⁻¹ s⁻¹
dependence of H2S release on cysteine concentration ([1]; 25 μM donor): dose-dependent release of H2S; also recorded: Increased cysteine concentrations led to increased rates of H2S production
H2S released ([1]; 25 μM solution of donor, 500 μM cysteine (20 equivalents)): 20 µM
reaction order in cysteine [1]: first-order dependence in cysteine

N[C@@H](CS)C(=O)O [cysteine]
pKa [2]: ~8.5
effective concentration of thiolate [3]: ~10%

N[C@@H](CCS)C(=O)O [homocysteine]
pKa [2]: ~10
effective concentration of thiolate [3]: ~0.03%

O=C(Oc1ccccc1)c1ccccc1 [phenyl benzoate, reference compound]
H2S release in the presence of cysteine [1]: lack of H2S release; also recorded: Neither of these compounds released H2S
